Data taken from PubChem BioAssay AID1963849 (Molecular Pharmacology Branch, DTP, NCI, 2024).

Tested on: 299254-011-R-J1-PDC complex spheroid viability
Experiment: Anticancer human tumor 299254-011-R-J1-PDC patient-derived melanoma cell line growth inhibition [POLQ]
Details: for IC50: curve of first compound; for viability, T/C: stronger effect = lower value
Procedure: Multicellular complex tumor spheroid response to Polymerase (POL) inhibitors (novobiocin, ART-558, RP6685) in combination with a variety of drugs and investigational agents in selected tumor cell lines
The POL inhibitors (novobiocin, ART-558, and RP6685) were evaluated both individually and in combination with standard of care and investigational anticancer small molecules within a complex spheroid model of solid tumors. . Complex spheroids include a stromal component modeled by human endothelial cells (HUVEC) and fibroblasts modeled by human mesenchymal stem cells (MSCs). The concentration ranges selected for each drug and investigational agent were based upon clinically achievable concentrations if the clinical Cmax of the agent was known.
Compounds. The drugs and investigational agents: novobiocin (NSC847541), ART-558 (NSC835418), RP-6685 (NSC848927), peposertib (NSC802822), ceralasertib (NSC780249), elimusertib (NSC800525), camonsertib (NSC841442), AZD-1390 (NSC803789), olaparib (NSC753686), talazoparib (NSC767125), rucaparib (NSC756644), sotorasib (NSC818433), MRTX-1133 (NSC836407), SN-38 (NSC673596), topotecan (NSC609699), epotoside (NSC141540), doxorubicin (NSC123127), gemcitabine (NSC613327), 5-fluorouracil (NSC19893), paclitaxel (NSC125973), vemurafenib (NSC761431), MSA-2 (NSC828583), SN-011 (NSC837082), adavosertib (NSC754352), prexasertib (NSC758257), carboplatin (NSC241240) and oxaliplatin (NSC266046), were obtained from the National Cancer Institute (NCI) Developmental Therapeutics Program Chemical Repository (21). The FDA-approved anticancer drug set is available from the Developmental Therapeutics Program at https://dtp.cancer.gov/organization/dscb/obtaining/. […] The stock solutions were prepared in dimethyl sulfoxide (DMSO, Sigma-Aldrich, St. Louis, MO, cat. D2650), except for the platinum compounds which were prepared in saline (Quality Biological, Gaithersburg, MD, cat. 114-055-101), at 800-fold the tested concentration and stored at -70 degrees C prior to their use. All drugs and investigational agents were tested over a range starting from a high concentration at or near the clinical Cmax and decreasing in half-log increments. If the clinical Cmax for an agent had not been determined, the highest concentration tested was 10 microM, except for SN-38, which was tested at a high concentration of 1 microM.
Cell Culture. All cells were maintained in an incubator at 37 degrees C and 5% CO2 with 95% humidity. The PDC lines were cultured according to standard operating procedures established by the NCI PDMR (https://pdmr.cancer.gov). Table 3 of the manuscript, lists the cell lines along with the number of the three cell types plated to form the mct-spheroids and media for tumor cell growth. After thawing, all PDC lines, except 997537-175-T-J1-PDC and 415267-285-R-J2-PDC, were cultured in Matrigel-coated flasks prepared with a working solution of 1X Ham's F-12 nutrient mix, without supplementation (Thermo Fisher Scientific, cat. 11765054), 100 U/mL penicillin-streptomycin (Thermo Fisher Scientific, cat. 15140122), and 2.5% Matrigel (Corning Inc., Corning, NY, cat. 354248) for the first three passages. The two PDC lines 997537-175-T-J1-PDC and 415267-285-R-J2-PDC were cultured on uncoated flasks. The 857933-349-R-J2-PDC line was cultured in 6C/Colon 1B media containing advanced DMEM/F-12 (Thermo Fisher Scientific, cat. 12634028), 10 mM HEPES (Thermo Fisher Scientific, cat. 15630080), 1X GlutaMAX supplement (Thermo Fisher Scientific, cat. 35050061), 0.1 mg/mL primocin (InvivoGen, San Diego, CA, cat. ant-pm-2), 10% defined fetal bovine serum, heat inactivated (HyClone Laboratories Inc., Logan, UT, cat. SH30070.03HI), 50% L-WRN conditioned media (ATCC, cat. CRL-3276), 1.25 mM N-Acetyl-L-cysteine (Sigma-Aldrich, cat. A9165), 10 mM nicotinamide (Sigma-Aldrich, cat. N0636), 1X B-27 supplement (Thermo Fisher Scientific, cat. 17504044), 1X N-2 supplement (Thermo Fisher Scientific, cat. […]
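Also: spheroids exposed to drugs for one week before measurement.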
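For viability, T/C in this document: percent viability relative to DMSO vehicle control taken as 100%.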

CC1COCCN1c1cc(-c2ccnn2C)c2ccnc(-c3ccn[nH]3)c2n1 (configuration not stated) + Cc1cccc(N(C)C(=O)C2C(O)CCN2c2nc(C)cc(C(F)(F)F)c2C#N)c1
IC50 (second compound 0.0316 µM): 0.246 µM
IC50 (second compound 0.1 µM): 0.217 µM
IC50 (second compound 0.316 µM): 0.297 µM
IC50 (second compound 1 µM): 0.221 µM
IC50 (second compound 3.16 µM): 0.158 µM
IC50 (second compound 10 µM): 0.153 µM
viability, T/C (second compound 0.0316 µM, first compound 0.0316 µM): 95.1%
viability, T/C (second compound 0.0316 µM, first compound 0.1 µM): 73.4%
viability, T/C (second compound 0.0316 µM, first compound 0.316 µM): 42.1%
viability, T/C (second compound 0.0316 µM, first compound 1 µM): 31.5%
viability, T/C (second compound 0.0316 µM, first compound 3.16 µM): 27.3%
viability, T/C (second compound 0.0316 µM, first compound 10 µM): 22.5%
viability, T/C (second compound 0.1 µM, first compound 0.0316 µM): 77.4%
viability, T/C (second compound 0.1 µM, first compound 0.1 µM): 77.2%
viability, T/C (second compound 0.1 µM, first compound 0.316 µM): 36.9%
viability, T/C (second compound 0.1 µM, first compound 1 µM): 30.4%
viability, T/C (second compound 0.1 µM, first compound 3.16 µM): 20.2%
viability, T/C (second compound 0.1 µM, first compound 10 µM): 19%
viability, T/C (second compound 0.316 µM, first compound 0.0316 µM): 104%
viability, T/C (second compound 0.316 µM, first compound 0.1 µM): 73.5%
viability, T/C (second compound 0.316 µM, first compound 0.316 µM): 48.6%
viability, T/C (second compound 0.316 µM, first compound 1 µM): 30.8%
viability, T/C (second compound 0.316 µM, first compound 3.16 µM): 23.6%
viability, T/C (second compound 0.316 µM, first compound 10 µM): 14.6%
viability, T/C (second compound 1 µM, first compound 0.0316 µM): 111%
viability, T/C (second compound 1 µM, first compound 0.1 µM): 73.1%
viability, T/C (second compound 1 µM, first compound 0.316 µM): 38.2%
viability, T/C (second compound 1 µM, first compound 1 µM): 28.2%
viability, T/C (second compound 1 µM, first compound 3.16 µM): 22.1%
viability, T/C (second compound 1 µM, first compound 10 µM): 19%
viability, T/C (second compound 3.16 µM, first compound 0.0316 µM): 82.8%
viability, T/C (second compound 3.16 µM, first compound 0.1 µM): 59.1%
viability, T/C (second compound 3.16 µM, first compound 0.316 µM): 36.5%
viability, T/C (second compound 3.16 µM, first compound 1 µM): 24.6%
viability, T/C (second compound 3.16 µM, first compound 3.16 µM): 24.7%
viability, T/C (second compound 3.16 µM, first compound 10 µM): 20.1%
viability, T/C (second compound 10 µM, first compound 0.0316 µM): 76.4%
viability, T/C (second compound 10 µM, first compound 0.1 µM): 59.1%
viability, T/C (second compound 10 µM, first compound 0.316 µM): 34%
viability, T/C (second compound 10 µM, first compound 1 µM): 29%
viability, T/C (second compound 10 µM, first compound 3.16 µM): 20.7%
viability, T/C (second compound 10 µM, first compound 10 µM): 19.4%
